The NIST ThermoML archive (doi:10.1016/j.fluid.2008.03.004)

Experiment: xn = mol fraction of the nth substance listed
Details: 101 kPa, Liquid; for speed of sound: Sing-around technique in a fixed-path interferometer

COC(C)(C)C [2-methoxy-2-methylpropane] + Cc1ccc(C)cc1
Details	mass density [kg/m3]	speed of sound [m/s]
288.15 K, x1 = 0.051	859.904	1337.8
288.15 K, x1 = 0.111	853.391	1325
288.15 K, x1 = 0.199	843.55	1302.9
288.15 K, x1 = 0.297	832.629	1278.6
288.15 K, x1 = 0.394	821.398	1253
288.15 K, x1 = 0.5	808.782	1223.9
288.15 K, x1 = 0.591	797.744	1199.5
288.15 K, x1 = 0.7	784.294	1169.8
288.15 K, x1 = 0.799	771.481	1140.7
288.15 K, x1 = 0.898	758.534	1112.1
288.15 K, x1 = 0.949	751.828	1096.4
288.15 K, x1 = 1	744.861	1083.4
290.65 K, x1 = 0.051	857.719	1327.2
290.65 K, x1 = 0.111	851.187	1314.2
290.65 K, x1 = 0.199	841.317	1292.2
290.65 K, x1 = 0.297	830.36	1267.7
290.65 K, x1 = 0.394	819.092	1242
290.65 K, x1 = 0.5	806.435	1212.8
290.65 K, x1 = 0.591	795.358	1188.4
290.65 K, x1 = 0.7	781.856	1158.4
290.65 K, x1 = 0.799	768.993	1129.2
290.65 K, x1 = 0.898	755.997	1100.5
290.65 K, x1 = 0.949	749.262	1084.7
290.65 K, x1 = 1	742.259	1071.6
293.15 K, x1 = 0.051	855.534	1316.8
293.15 K, x1 = 0.111	848.983	1303.7
293.15 K, x1 = 0.199	839.08	1281.6
293.15 K, x1 = 0.297	828.088	1257
293.15 K, x1 = 0.394	816.783	1231.1
293.15 K, x1 = 0.5	804.082	1201.9
293.15 K, x1 = 0.591	792.963	1177.3
293.15 K, x1 = 0.7	779.412	1147.2
293.15 K, x1 = 0.799	766.5	1117.9
293.15 K, x1 = 0.898	753.452	1089
293.15 K, x1 = 0.949	746.689	1073.2
293.15 K, x1 = 1	739.654	1060
295.65 K, x1 = 0.051	853.348	1306.5
295.65 K, x1 = 0.111	846.775	1293.1
295.65 K, x1 = 0.199	836.841	1271
295.65 K, x1 = 0.297	825.813	1246.2
295.65 K, x1 = 0.394	814.47	1220.2
295.65 K, x1 = 0.5	801.723	1191
295.65 K, x1 = 0.591	790.564	1166.2
295.65 K, x1 = 0.7	776.96	1135.9
295.65 K, x1 = 0.799	763.998	1106.6
295.65 K, x1 = 0.898	750.898	1077.5
295.65 K, x1 = 0.949	744.102	1061.7
295.65 K, x1 = 1	737.036	1048.5
298.15 K, x1 = 0.051	851.161	1296.3
298.15 K, x1 = 0.111	844.568	1282.7
298.15 K, x1 = 0.199	834.598	1260.5
298.15 K, x1 = 0.297	823.534	1235.5
298.15 K, x1 = 0.394	812.151	1209.4
298.15 K, x1 = 0.5	799.359	1180.1
298.15 K, x1 = 0.591	788.159	1155.2
298.15 K, x1 = 0.7	774.504	1124.7
298.15 K, x1 = 0.799	761.487	1095.3
298.15 K, x1 = 0.898	748.333	1066
298.15 K, x1 = 0.949	741.507	1050.2
298.15 K, x1 = 1	734.406	1036.9
300.65 K, x1 = 0.051	848.97	1286.1
300.65 K, x1 = 0.111	842.356	1272.2
300.65 K, x1 = 0.199	832.351	1249.9
300.65 K, x1 = 0.297	821.251	1224.8
300.65 K, x1 = 0.394	809.83	1198.7
300.65 K, x1 = 0.5	796.99	1169.2
300.65 K, x1 = 0.591	785.75	1144.2
300.65 K, x1 = 0.7	772.04	1113.5
300.65 K, x1 = 0.799	758.97	1084
300.65 K, x1 = 0.898	745.759	1054.6
300.65 K, x1 = 0.949	738.9	1038.8
300.65 K, x1 = 1	731.766	1025.4
303.15 K, x1 = 0.051	846.775	1275.9
303.15 K, x1 = 0.111	840.14	1261.8
303.15 K, x1 = 0.199	830.102	1239.4
303.15 K, x1 = 0.297	818.963	1214.2
303.15 K, x1 = 0.394	807.503	1187.9
303.15 K, x1 = 0.5	794.615	1158.4
303.15 K, x1 = 0.591	783.333	1133.2
303.15 K, x1 = 0.7	769.567	1102.4
303.15 K, x1 = 0.799	756.446	1072.8
303.15 K, x1 = 0.898	743.176	1043.3
303.15 K, x1 = 0.949	736.284	1027.4
303.15 K, x1 = 1	729.112	1013.9
305.65 K, x1 = 0.051	–	1265.7
305.65 K, x1 = 0.111	–	1251.5
305.65 K, x1 = 0.199	–	1228.9
305.65 K, x1 = 0.297	–	1203.5
305.65 K, x1 = 0.394	–	1177.3
305.65 K, x1 = 0.5	–	1147.6
305.65 K, x1 = 0.591	–	1122.3
305.65 K, x1 = 0.7	–	1091.3
305.65 K, x1 = 0.799	–	1061.6
305.65 K, x1 = 0.898	–	1031.9
305.65 K, x1 = 0.949	–	1016
305.65 K, x1 = 1	–	1002.4
